Assay type in all cases: cell-based
One assay concerns the target T1, PTGER2 (EP2) (Homo sapiens, UniProt P43116).
T1 construct: host or cells: HEK 293 (PathHunter PTGER2 b-arrestin cell line)
The assay can be described thus: hEP2 b-arrestin assay (PathHunter HEK 293 PTGER2 b-arrestin cells). The note with it: antagonistic activity, beta-arrestin assay; read-out: hEP2 b-arr IC50. The method, boiled down:
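PathHunter HEK293 cells with ProLink-tagged EP2 and EA-β-arrestin 2 preincubated 15 min at 37 °C with compound (10 μM-2 nM or 1 μM-0.2 nM), then stimulated 120 min with 5 μM PGE2 (EC80). β-gal complementation read by chemiluminescence; IC50 from duplicate dose-response versus DMSO.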

For a further assay, the target named is T2, PTGER4 (EP4) (Homo sapiens, UniProt P35408).
T2 construct: host or cells: HEK 293 (PathHunter PTGER4 b-arrestin cell line)
T2 sequence (P35408 whole entry): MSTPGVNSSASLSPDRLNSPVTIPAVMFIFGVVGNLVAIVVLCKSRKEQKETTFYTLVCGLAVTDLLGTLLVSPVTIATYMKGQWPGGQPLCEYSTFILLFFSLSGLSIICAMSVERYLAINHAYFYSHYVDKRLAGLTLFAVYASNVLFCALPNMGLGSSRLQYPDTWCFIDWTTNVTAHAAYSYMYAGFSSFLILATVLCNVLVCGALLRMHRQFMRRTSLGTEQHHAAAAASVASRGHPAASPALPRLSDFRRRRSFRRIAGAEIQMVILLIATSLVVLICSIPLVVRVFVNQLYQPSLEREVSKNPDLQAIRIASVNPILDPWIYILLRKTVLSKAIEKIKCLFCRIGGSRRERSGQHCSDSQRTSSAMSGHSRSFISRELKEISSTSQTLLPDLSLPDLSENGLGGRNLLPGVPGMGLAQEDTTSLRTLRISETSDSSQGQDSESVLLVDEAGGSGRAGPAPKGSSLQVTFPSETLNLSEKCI
As to the kind of experiment: hEP4 b-arrestin assay (PathHunter HEK 293 PTGER4 b-arrestin cells). The note with it: antagonistic activity, beta-arrestin assay; read-out: hEP4 b-arr IC50. The method, boiled down: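 PathHunter HEK 293 cells expressing ProLink-tagged human EP4 and EA-β-arrestin 2, seeded 24 h before. Compounds (10 μM–2 nM or 1 μM–0.2 nM) preincubated 15 min at 37 °C, then 20 nM PGE2 (EC80) for 120 min at 37 °C. β-gal complementation luminescence read; IC50 from duplicate dose-response curves versus DMSO control.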

The target in another assay is T3, EP4 receptor (Homo sapiens, UniProt P35408).
T3 construct: BT549 breast cancer cells, express high endogenous EP4 levels and very low EP2 levels; host or cells: BT549 breast cancer cells
T3 sequence (P35408 whole entry): as above
The assay can be described thus: hEP4 cAMP assay (BT549 breast cancer cells, HTRF cAMP, PGE2 stimulation). The note with it: antagonistic activity, PGE2 6 nM (EC80). Summed up: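 BT549 cells, with endogenous EP4 and very low EP2, were preincubated 45 min at room temperature with compound in HBSS/HEPES/BSA buffer with 2 mM IBMX. They were then stimulated 30 min with 6 nM PGE2 (EC80). cAMP was measured by HTRF competitive immunoassay against a calibrator; IC50 from duplicate dose-response as % of DMSO control.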
(In general: cAMP levels reflect the balance of adenylyl cyclase and phosphodiesterase activity.)

T1 sequence (P43116 whole entry): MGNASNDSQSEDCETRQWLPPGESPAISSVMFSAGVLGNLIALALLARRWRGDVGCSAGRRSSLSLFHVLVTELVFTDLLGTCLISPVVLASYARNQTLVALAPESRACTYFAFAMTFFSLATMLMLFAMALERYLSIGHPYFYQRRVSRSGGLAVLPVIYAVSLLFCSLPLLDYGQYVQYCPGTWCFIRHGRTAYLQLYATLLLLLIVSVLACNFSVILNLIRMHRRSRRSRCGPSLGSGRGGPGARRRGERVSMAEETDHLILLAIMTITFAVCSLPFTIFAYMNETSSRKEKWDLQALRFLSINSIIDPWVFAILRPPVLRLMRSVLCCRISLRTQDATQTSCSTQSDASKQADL

For orientation: IC50 means the midpoint of a concentration-inhibition curve. As for `CCOc1cc(-c2cc(NCCc3c(C)sc4c(C)cc(F)cc34)ncn2)ccc1OCCC(=O)O` [Example 143, 3-(2-Ethoxy-4-{6-[2-(5-fluoro-2,7-dimethyl-benzo[b]thiophen-3-yl)-ethylamino]-pyrimidin-4-yl}-phenoxy)-propionic acid], the half-inhibitory concentration (IC50) was found to be 52 nM on PTGER2 (EP2), 63 nM at PTGER4 (EP4) and 115 nM at EP4 receptor.
On the same counts, the results for `CCCCOc1cc(-c2cc(NCCc3c(C)sc4c(C)cc(F)cc34)ncn2)cc(F)c1C(=O)O` [Example 144, 2-Butoxy-6-fluoro-4-{6-[2-(5-fluoro-2,7-dimethyl-benzo[b]thiophen-3-yl)-ethylamino]-pyrimidin-4-yl}-benzoic acid] are 26 nM, 92 nM and 112 nM.
On to `COc1ccc(F)c2c(CCNc3cc(-c4ccc(C(=O)O)c(OC5CCC5)c4F)ncn3)c(C)sc12` [Example 146, 2-Cyclobutoxy-3-fluoro-4-{6-[2-(4-fluoro-7-methoxy-2-methyl-benzo[b]thiophen-3-yl)-ethylamino]-pyrimidin-4-yl}-benzoic acid], for which the values for the IC50 at PTGER2 (EP2), on PTGER4 (EP4) and against EP4 receptor were 47 nM, 357 nM and 243 nM, respectively.
Take `COc1cc(Cl)cc2c(CCNc3cc(-c4ccc(C(=O)O)c(OC5CCC5)c4F)ncn3)c(C)oc12` [Example 147, 4-{6-[2-(5-Chloro-7-methoxy-2-methyl-benzofuran-3-yl)-ethylamino]-pyrimidin-4-yl}-2-cyclobutoxy-3-fluoro-benzoic acid]: the values for the IC50 on PTGER2 (EP2), on PTGER4 (EP4) and against EP4 receptor were 213 nM, 873 nM and 889 nM, respectively.
The matching figures for `Cc1sc2c(C)ccc(F)c2c1CCNc1cc(-c2cc(F)c(C(=O)O)c(OC3CCC3)c2)ncn1` [Example 148, 2-Cyclobutoxy-6-fluoro-4-{6-[2-(4-fluoro-2,7-dimethyl-benzo[b]thiophen-3-yl)-ethylamino]-pyrimidin-4-yl}-benzoic acid]: 30 nM, 43 nM and 238 nM.
Take `COc1ccc(F)c2c(CCNc3cc(-c4cc(F)c(C(=O)O)c(OC5CCC5)c4)ncn3)c(C)sc12` [Example 149, 2-Cyclobutoxy-6-fluoro-4-{6-[2-(4-fluoro-7-methoxy-2-methyl-benzo[b]thiophen-3-yl)-ethylamino]-pyrimidin-4-yl}-benzoic acid]: the concentration for half-maximal inhibition (IC50) on PTGER2 (EP2) stood at 13 nM; on PTGER4 (EP4) it was 67 nM; against EP4 receptor, 241 nM.
For `COc1cc(F)c(F)c2c(CCNc3cc(-c4cc(F)c(C(=O)O)c(OC5CCC5)c4)ncn3)c(C)oc12` [Example 150, 2-Cyclobutoxy-4-{6-[2-(4,5-difluoro-7-methoxy-2-methyl-benzofuran-3-yl)-ethylamino]-pyrimidin-4-yl}-6-fluoro-benzoic acid], the IC50 came to 109 nM at PTGER2 (EP2), 363 nM on PTGER4 (EP4) and 450 nM against EP4 receptor.
Consider `COc1cc(Cl)cc2c(CCNc3cc(-c4cc(F)c(C(=O)O)c(OC5CCC5)c4)ncn3)c(C)oc12` [Example 151, 4-{6-[2-(5-Chloro-7-methoxy-2-methyl-benzofuran-3-yl)-ethylamino]-pyrimidin-4-yl}-2-cyclobutoxy-6-fluoro-benzoic acid], for which the results for the half-maximal inhibitory concentration (IC50) at PTGER2 (EP2), at PTGER4 (EP4) and against EP4 receptor were 60 nM, 163 nM and 631 nM, respectively.
Turning to `Cc1sc2c(C)cc(F)cc2c1CCNc1cc(-c2ccc(C(=O)O)c(OC3CCCC3)c2)ncn1` [Example 152, 2-Cyclopentyloxy-4-{6-[2-(5-fluoro-2,7-dimethyl-benzo[b]thiophen-3-yl)-ethylamino]-pyrimidin-4-yl}-benzoic acid], the IC50 worked out at 27 nM on PTGER2 (EP2), 337 nM on PTGER4 (EP4) and 581 nM on EP4 receptor.
Take `COc1ccc(Cl)c2c(CCNc3cc(-c4ccc(C(=O)O)c(OC5CCCC5)c4)ncn3)c(C)sc12` [Example 153, 4-{6-[2-(4-Chloro-7-methoxy-2-methyl-benzo[b]thiophen-3-yl)-ethylamino]-pyrimidin-4-yl}-2-cyclopentyloxy-benzoic acid]: the IC50 amounted to 46 nM at PTGER2 (EP2), 157 nM at PTGER4 (EP4) and 827 nM against EP4 receptor.

For the origin of these results see patent publication US11325899B2, “Benzofurane and benzothiophene derivatives as PGE2 receptor modulators” (IDORSIA PHARMACEUTICALS LTD, priority 2017, dated 2022).
